Earlier results as cited in US11965206B2, “Method of dosing a patient with multiple drugs using adjusted phenotypes of CYP450 enzymes” (priority 2018, dated 2024).
Like-named read-outs stand apart in the source and are kept apart here.

Assays:
[1] = molecular target: CYP450 enzyme 2D6 (Homo sapiens, UniProt P10635)
[2] = molecular target: CYP450 enzyme 2C9 (Homo sapiens, UniProt P11712); settings: found in drug databases
[3] = molecular target: CYP450 enzyme 2C19 (Homo sapiens, UniProt P33261); settings: found in drug databases
[4] = molecular target: T1, CYP450 enzyme 2B6 (Homo sapiens, UniProt P20813); settings: found in drug databases
T1 sequence (P20813 1-491): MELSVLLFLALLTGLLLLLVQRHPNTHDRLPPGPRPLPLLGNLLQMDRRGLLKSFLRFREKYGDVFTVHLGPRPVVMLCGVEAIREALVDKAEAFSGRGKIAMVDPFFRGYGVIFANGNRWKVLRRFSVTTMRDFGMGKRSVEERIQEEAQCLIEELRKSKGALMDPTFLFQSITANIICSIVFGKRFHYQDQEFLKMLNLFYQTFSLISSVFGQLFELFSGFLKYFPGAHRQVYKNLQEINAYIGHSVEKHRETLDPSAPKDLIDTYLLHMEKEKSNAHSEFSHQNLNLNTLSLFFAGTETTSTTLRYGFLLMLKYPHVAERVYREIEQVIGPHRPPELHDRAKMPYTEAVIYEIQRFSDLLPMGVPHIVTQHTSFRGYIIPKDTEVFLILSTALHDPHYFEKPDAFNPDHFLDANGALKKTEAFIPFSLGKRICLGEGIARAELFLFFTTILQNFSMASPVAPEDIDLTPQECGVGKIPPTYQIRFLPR

[5] = molecular target: CYP450 enzyme 3A4 (Homo sapiens, UniProt P08684)
Chain of CYP450 enzyme 3A4 (P08684 whole entry): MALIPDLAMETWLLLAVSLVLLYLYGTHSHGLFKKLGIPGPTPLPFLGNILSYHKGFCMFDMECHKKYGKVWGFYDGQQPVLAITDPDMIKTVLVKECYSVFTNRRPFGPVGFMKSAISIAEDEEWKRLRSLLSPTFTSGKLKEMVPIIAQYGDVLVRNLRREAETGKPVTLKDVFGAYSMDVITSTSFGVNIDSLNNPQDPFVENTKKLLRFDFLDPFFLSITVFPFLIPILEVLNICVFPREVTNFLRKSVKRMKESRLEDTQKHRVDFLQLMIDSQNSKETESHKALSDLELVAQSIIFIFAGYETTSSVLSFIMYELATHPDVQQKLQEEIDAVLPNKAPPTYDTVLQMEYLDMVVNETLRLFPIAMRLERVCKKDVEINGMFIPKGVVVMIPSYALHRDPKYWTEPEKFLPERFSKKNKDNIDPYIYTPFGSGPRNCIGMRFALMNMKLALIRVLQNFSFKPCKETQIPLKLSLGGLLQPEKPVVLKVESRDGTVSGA

Chain of CYP450 enzyme 2C9 (P11712 whole entry): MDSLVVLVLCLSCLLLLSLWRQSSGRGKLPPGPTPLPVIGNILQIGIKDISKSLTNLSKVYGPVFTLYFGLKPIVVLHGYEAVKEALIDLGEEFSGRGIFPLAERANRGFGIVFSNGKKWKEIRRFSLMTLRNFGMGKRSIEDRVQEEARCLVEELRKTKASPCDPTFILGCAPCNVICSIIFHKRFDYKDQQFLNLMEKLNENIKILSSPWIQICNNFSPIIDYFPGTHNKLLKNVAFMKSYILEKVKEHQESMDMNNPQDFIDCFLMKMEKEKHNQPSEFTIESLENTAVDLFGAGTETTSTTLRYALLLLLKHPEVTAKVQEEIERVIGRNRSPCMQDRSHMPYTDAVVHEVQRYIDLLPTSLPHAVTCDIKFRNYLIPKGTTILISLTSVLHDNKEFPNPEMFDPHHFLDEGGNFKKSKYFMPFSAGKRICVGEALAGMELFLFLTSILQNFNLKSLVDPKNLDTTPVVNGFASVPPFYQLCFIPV
Chain of CYP450 enzyme 2D6 (P10635 whole entry): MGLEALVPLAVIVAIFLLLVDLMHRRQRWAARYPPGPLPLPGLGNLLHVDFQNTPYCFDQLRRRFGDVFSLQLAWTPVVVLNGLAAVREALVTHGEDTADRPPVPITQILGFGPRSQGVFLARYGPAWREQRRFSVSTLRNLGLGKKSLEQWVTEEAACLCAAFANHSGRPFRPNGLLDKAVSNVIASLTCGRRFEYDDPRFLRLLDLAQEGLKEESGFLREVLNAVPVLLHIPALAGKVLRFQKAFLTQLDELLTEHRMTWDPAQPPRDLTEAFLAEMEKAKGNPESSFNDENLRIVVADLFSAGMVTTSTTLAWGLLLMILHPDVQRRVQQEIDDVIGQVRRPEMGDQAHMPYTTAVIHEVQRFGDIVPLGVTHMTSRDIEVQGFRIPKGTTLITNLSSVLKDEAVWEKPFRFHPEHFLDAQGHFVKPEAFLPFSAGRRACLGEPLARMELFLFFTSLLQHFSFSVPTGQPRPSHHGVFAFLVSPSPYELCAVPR
Chain of CYP450 enzyme 2C19 (P33261 whole entry): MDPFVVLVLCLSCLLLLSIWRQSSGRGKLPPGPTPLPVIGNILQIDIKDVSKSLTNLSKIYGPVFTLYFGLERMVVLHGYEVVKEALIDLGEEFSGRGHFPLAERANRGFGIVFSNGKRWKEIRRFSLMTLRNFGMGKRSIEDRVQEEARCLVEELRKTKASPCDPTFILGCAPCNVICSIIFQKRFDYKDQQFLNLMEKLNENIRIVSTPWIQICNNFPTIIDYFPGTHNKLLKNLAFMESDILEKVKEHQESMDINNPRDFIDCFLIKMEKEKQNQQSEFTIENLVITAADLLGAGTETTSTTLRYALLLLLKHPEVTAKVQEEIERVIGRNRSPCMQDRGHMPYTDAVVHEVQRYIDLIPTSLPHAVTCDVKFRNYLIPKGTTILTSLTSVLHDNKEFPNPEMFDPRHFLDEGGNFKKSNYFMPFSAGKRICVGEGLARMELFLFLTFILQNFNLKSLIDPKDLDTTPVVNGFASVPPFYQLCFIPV

Structure (SMILES)	substrate for 2D6 ([1]; found in drug databases)	substrate for 2C9 [2]	strong, moderate or weak inhibitor of 2D6 ([1]; found in drug databases)	also measured
O=C1CCc2ccc(OCCCCN3CCN(c4cccc(Cl)c4Cl)CC3)cc2N1 [Abilify]	substrate	–	–	–
CCCC(CCC)C(=O)O [Depakote]	–	substrate	–	strong, moderate or weak inhibitor of 2C9 [2]: weak inhibitor; strong, moderate or weak inhibitor of 2C19 [3]: weak inhibitor; substrate for 2B6 [4]: substrate
COc1ccc([C@@H]2Sc3ccccc3N(CCN(C)C)C(=O)[C@@H]2OC(C)=O)cc1 [Diltiazem, diltiazem]	–	–	weak inhibitor	–
O=C(CCCN1CCC(O)(c2ccc(Cl)cc2)CC1)c1ccc(F)cc1 [Haldol]	substrate	–	weak inhibitor	–
CCCCC1=NC2(CCCC2)C(=O)N1Cc1ccc(-c2ccccc2-c2nnn[nH]2)cc1 [Irbesartan]	–	substrate	–	–
CN(C)CCC[C@@]1(c2ccc(F)cc2)OCc2cc(C#N)ccc21 [Lexapro]	–	–	weak inhibitor	substrate for 2C19 [3]: substrate; substrate for 3A4 [5]: substrate
CNCCC(Oc1ccc(C(F)(F)F)cc1)c1ccccc1 (stereo not shown) [Prozac]	substrate	substrate	–	strong, moderate or weak inhibitor of 2C9 [2]: moderate inhibitor
Cc1nc2n(c(=O)c1CCN1CCC(c3noc4cc(F)ccc34)CC1)CCCC2 [Risperidone]	substrate	–	weak inhibitor	–
COCCc1ccc(OCC(O)CNC(C)C)cc1 (stereo not shown) [metoprolol]	substrate	–	–	–
Fc1ccc([C@@H]2CCNC[C@H]2COc2ccc3c(c2)OCO3)cc1 [paroxetine]	–	–	–	substrate for 2D6 [1]: substrate
